Tested on: not listed separately
Assay: Microsomal stability, human liver microsomes (predicted hepatic clearance)
Details: predicted from in vitro microsomal stability data

In the case of COCCn1c(Cc2ccc(-c3cccc(OCn4ccc(C(=O)O)cc4=O)n3)cc2F)nc2ccc(C(=O)O)cc21 [Example 503, 2-(4-(6-((4-carboxy-2-oxopyridin-1(2H)-yl)methoxy)pyridin-2-yl)-2-fluorobenzyl)-1-(2-methoxyethyl)-1H-benzo[d]imidazole-6-carboxylic acid], the “Predicted Hepatic Clearance (Pred. Cl.)” value is reported as under 1.83 mL/min/kg.

For N#Cc1ccc(COc2cccc(-c3ccc(Cc4nc5ccc(C(=O)O)cc5n4CC4CCO4)c(F)c3)n2)c(F)c1 (stereo not drawn) [Example 15, 2-(4-(6-((4-cyano-2-fluorobenzyl)oxy)pyridin-2-yl)-2-fluorobenzyl)-1-(oxetan-2-ylmethyl)-1H-benzo[d]imidazole-6-carboxylic acid], the “Predicted Hepatic Clearance (Pred. Cl.)” value was 3.3 mL/min/kg.

Target: GLP-1R (Homo sapiens, UniProt P43220)
Assay: GLP-1R activation: cAMP increase in CHO cells stably expressing GLP-1R
Type: cell-based
Details: cAMP increase, CHO cells stably expressing GLP-1R, 10 point dose response, 30 minutes incubation; read-out: EC50

Chain of GLP-1R (P43220 24-463): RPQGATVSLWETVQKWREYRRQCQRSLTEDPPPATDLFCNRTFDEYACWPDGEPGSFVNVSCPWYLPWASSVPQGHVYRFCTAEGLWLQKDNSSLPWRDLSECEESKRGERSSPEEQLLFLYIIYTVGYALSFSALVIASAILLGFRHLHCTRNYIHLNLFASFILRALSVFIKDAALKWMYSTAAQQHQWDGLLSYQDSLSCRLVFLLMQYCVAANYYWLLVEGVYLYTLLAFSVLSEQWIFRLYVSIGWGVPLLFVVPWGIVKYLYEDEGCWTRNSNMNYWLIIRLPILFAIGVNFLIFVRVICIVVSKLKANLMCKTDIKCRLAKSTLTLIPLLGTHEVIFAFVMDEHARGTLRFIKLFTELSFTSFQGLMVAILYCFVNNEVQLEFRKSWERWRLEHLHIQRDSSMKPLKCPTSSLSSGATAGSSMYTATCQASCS

In order of rising EC50:
1. O=C(O)c1ccc2nc(Cc3cc(F)c(-c4nc(OCc5ccc(C(F)F)cc5F)ccc4F)cc3F)n(C[C@@H]3CCO3)c2c1 [Example 787]  0.08 nM
2. COc1cc(Cl)ccc1COc1nccc(-c2cc(F)c(Cc3nc4ccc(C(=O)O)cc4n3CC3(CC#N)CC3)cc2F)n1 [Example 446, 2-(4-(2-((4-chloro-2-methoxybenzyl)oxy)pyrimidin-4-yl)-2,5-difluorobenzyl)-1-((1-(cyanomethyl)cyclopropyl)methyl)-1H-benzo[d]imidazole-6-carboxylic acid]  0.15 nM
3. N#Cc1ccc(COc2cccc(-c3cc(F)c(Cc4nc5c(F)cc(C(=O)O)cc5n4Cc4ncco4)cc3F)n2)c(F)c1 [Example 584, 2-(4-(6-((4-cyano-2-fluorobenzyl)oxy)pyridin-2-yl)-2,5-difluorobenzyl)-4-fluoro-1-(oxazol-2-ylmethyl)-1H-benzo[d]imidazole-6-carboxylic acid]  0.23 nM
4. N#Cc1ccc(COc2cccc(-c3cc(F)c(Cc4nc5ccc(C(=O)O)cc5n4CC4(CO)CC4)cc3F)n2)c(F)c1 [Example 637]  1.18 nM
5. COCCn1c(Cc2ccc(-c3cccc(OCc4ccc(Br)c5nsnc45)n3)cc2F)nc2ccc(C(=O)O)cc21 [Example 151, 2-(4-(6-((7-bromobenzo[c][1,2,5]thiadiazol-4-yl)methoxy)pyridin-2-yl)-2-fluorobenzyl)-1-(2-methoxyethyl)-1H-benzo[d]imidazole-6-carboxylic acid]  7.93 nM
6. COCCn1c(Cc2ccc(-c3cccc(OCc4cnc(Cl)nc4OC)n3)cc2F)nc2ccc(C(=O)O)cc21 [Example 227, 2-(4-(6-((2-chloro-4-methoxypyrimidin-5-yl)methoxy)pyridin-2-yl)-2-fluorobenzyl)-1-(2-methoxyethyl)-1H-benzo[d]imidazole-6-carboxylic acid]  14.3 nM
7. COCCn1c(Cc2ncc(-c3cccc(OCc4ccc(C#N)cc4F)n3)cn2)nc2ccc(C(=O)O)cc21 [Example 58, 2-((5-(6-((4-cyano-2-fluorobenzyl)oxy)pyridin-2-yl)pyrimidin-2-yl)methyl)-1-(2-methoxyethyl)-1H-benzo[d]imidazole-6-carboxylic acid]  28.8 nM
8. COC1(Cn2c(Cc3cc(F)c(-c4cccc(OCc5ccc(C#N)cc5F)n4)cc3F)nc3ccc(C(=O)O)cc32)CN(C(=O)C2CC2)C1 [Example 889, 2-(4-(6-((4-cyano-2-fluorobenzyl)oxy)pyridin-2-yl)-2,5-difluorobenzyl)-1-((1-(cyclopropanecarbonyl)-3-methoxyazetidin-3-yl)methyl)-1H-benzo[d]imidazole-6-carboxylic acid]  69.5 nM
9. CO[C@H]1C[C@@H](n2c(Cc3cc(F)c(-c4cccc(OCc5ccc(C#N)cc5F)n4)cc3F)nc3ccc(C(=O)O)cc32)C1 [Example 566, 2-(4-(6-((4-cyano-2-fluorobenzyl)oxy)pyridin-2-yl)-2,5-difluorobenzyl)-1-((1s,3s)-3-methoxycyclobutyl)-1H-benzo[d]imidazole-6-carboxylic acid]  255 nM
10. COCCn1c(Cc2cc(F)c(-c3nc(OCc4ccc(C#N)cc4F)c(F)cc3F)cc2F)nc2ccc(C(=O)O)cc21 [Example 538, 2-(4-(6-((4-cyano-2-fluorobenzyl)oxy)-3,5-difluoropyridin-2-yl)-2,5-difluorobenzyl)-1-(2-methoxyethyl)-1H-benzo[d]imidazole-6-carboxylic]  4250 nM

— patent publication US11702404B2, “GLP-1R modulating compounds” (priority 2019, dated 2023)
